According to US20210261527A1, “OGA INHIBITOR COMPOUNDS” (Janssen Pharmaceutica NV, priority 2018, published 2021):
Counter-ions that a name gives are not always drawn.

Legend:
[1] = molecular target: T1, hOGA in HEK293 cells inducible for P301L mutant human Tau (isoform 2N4R) (Homo sapiens, UniProt O60502); experiment: OGA cellular assay (ICC detection of O-GlcNAcylated proteins); assay type: cell-based; settings: 6 hours incubation; for Emax: maximum = Thiamet G at 200 uM; for EC50: O-GlcNAcylation intensity readout at 488 nm, read-out: Cellular hOGA, pEC50 (converted)
T1 construct: endogenous in cells; host or cells: HEK293 cells inducible for P301L mutant human Tau (isoform 2N4R)
T1 sequence (O60502 1-916): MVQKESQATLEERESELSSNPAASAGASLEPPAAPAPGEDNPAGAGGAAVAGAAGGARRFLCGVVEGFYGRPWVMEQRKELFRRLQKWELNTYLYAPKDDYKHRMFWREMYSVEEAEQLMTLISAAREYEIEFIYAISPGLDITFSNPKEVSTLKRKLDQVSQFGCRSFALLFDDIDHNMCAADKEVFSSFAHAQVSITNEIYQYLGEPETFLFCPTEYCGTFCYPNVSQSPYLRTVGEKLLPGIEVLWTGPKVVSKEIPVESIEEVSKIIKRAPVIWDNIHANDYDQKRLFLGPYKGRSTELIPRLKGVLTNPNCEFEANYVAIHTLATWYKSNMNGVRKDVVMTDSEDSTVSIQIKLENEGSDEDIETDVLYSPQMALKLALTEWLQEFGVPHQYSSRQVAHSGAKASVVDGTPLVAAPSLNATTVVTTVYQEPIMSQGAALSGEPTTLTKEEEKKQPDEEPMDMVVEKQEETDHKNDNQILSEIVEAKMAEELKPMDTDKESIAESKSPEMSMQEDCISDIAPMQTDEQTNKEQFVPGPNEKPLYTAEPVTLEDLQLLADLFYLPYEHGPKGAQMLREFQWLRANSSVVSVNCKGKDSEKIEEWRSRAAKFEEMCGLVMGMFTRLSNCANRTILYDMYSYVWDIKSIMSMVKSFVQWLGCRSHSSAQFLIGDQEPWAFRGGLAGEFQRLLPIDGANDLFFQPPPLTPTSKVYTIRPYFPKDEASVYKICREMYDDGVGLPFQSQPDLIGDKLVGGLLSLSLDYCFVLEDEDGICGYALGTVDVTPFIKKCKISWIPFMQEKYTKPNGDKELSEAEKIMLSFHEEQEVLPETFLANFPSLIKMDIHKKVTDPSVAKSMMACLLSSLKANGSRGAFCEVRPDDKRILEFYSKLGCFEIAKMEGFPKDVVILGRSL
Description: HEK293 cells inducible for P301L mutant human Tau (isoform 2N4R) were established at Janssen. Thiamet-G was used for both plate validation (high control) and as reference compound (reference EC50 assay validation). OGA inhibition is evaluated through the immunocytochemical (ICC) detection of O-GlcNAcylated proteins by the use of a monoclonal antibody (CTD110.6; Cell Signaling, #9875) detecting 0-GlcNAcylated residues as previously described (Dorfmueller et al. 2010 Chemistry & biology, 17:1250). Inhibition of OGA will result in an increase of O-GlcNAcylated protein levels resulting in an increased signal in the experiment. Cell nuclei are stained with Hoechst to give a cell culture quality control and a rough estimate of immediate compounds toxicity, if any. ICC pictures are imaged with a Perkin Elmer Opera Phenix plate microscope and quantified with the provided software Perkin Elmer Harmony 4.1.
Cells were propagated in DMEM high Glucose (Sigma, #D5796) following standard procedures. 2 days before the cell assay cells are split, counted and seeded in Poly-D-Lysine (PDL) coated 96-wells (Greiner, #655946) plate at a cell density of 12,000 cells per cm^2 (4,000 cells per well) in 100 μl of Assay Medium (Low Glucose medium is used to reduce basal levels of GlcNAcylation) (Park et al. 2014 The Journal of biological chemistry 289:13519). At the day of compound test medium from assay plates was removed and replenished with 90 μl of fresh Assay Medium. 10 μl of compounds at a 10fold final concentration were added to the wells. Plates were centrifuged shortly before incubation in the cell incubator for 6 hours. DMSO concentration was set to 0.2%. Medium is discarded by applying vacuum. For staining of cells medium was removed and cells washed once with 100 μl D-PBS (Sigma, #D8537). From next step onwards unless other stated assay volume was always 50 μl and incubation was performed without agitation and at room temperature. Cells were fixed in 50 μl of a 4% paraformaldehyde (PFA, Alpha aesar, #043368) PBS solution for 15 minutes at room temperature. […] Before analysis samples were washed 2 times manually for 5 minutes in ICC base buffer.
Imaging is performed using Perkin Elmer Phenix Opera using a water 20× objective and recording 9 fields per well. Intensity readout at 488 nm is used as a measure of O-GlcNAcylation level of total proteins in wells. To assess potential toxicity of compounds nuclei were counted using the Hoechst staining. IC50-values are calculated using parametric non-linear regression model fitting. As a maximum inhibition Thiamet G at a 200 uM concentration is present on each plate. In addition, a concentration response of Thiamet G is calculated on each plate.

[2] = molecular target: T2, recombinant human Meningioma Expressed Antigen 5 (MGEA5), also referred to as O-GlcNAcase (OGA) (Homo sapiens, UniProt O60502); experiment: OGA biochemical assay (FM-GlcNAc hydrolysis, fluorescence); settings: full length OGA 2 nM, FM-GlcNAc 100 uM, pH 7.2, 6 h at room temperature; for Emax: read-out: Enzymatic Emax (%); for IC50: read-out: Enzymatic hOGA, pIC50 (converted)
T2 construct: Full length OGA enzyme was purchased at OnGene (cat #TP322411); purchased OnGene (so in the source)
T2 sequence (O60502 1-916): T1 sequence (O60502 1-916)
Source text: The assay is based on the inhibition of the hydrolysis of fluorescein mono-β-D-N-Acetyl-Glucosamine (FM-GlcNAc) (Mariappa et al. 2015, Biochem J 470:255) by the recombinant human Meningioma Expressed Antigen 5 (MGEA5), also referred to as O-GlcNAcase (OGA). The hydrolysis FM-GlcNAc (Marker Gene technologies, cat #M1485) results in the formation of β-D-N-glucosamineacetate and fluorescein. The fluorescence of the latter can be measured at excitation wavelength 485 nm and emission wavelength 538 nm. An increase in enzyme activity results in an increase in fluorescence signal. Full length OGA enzyme was purchased at OnGene (cat #TP322411). The enzyme was stored in 25 mM Tris.HCl, pH 7.3, 100 mM glycine, 10% glycerol at −20° C. Thiamet G and GlcNAcStatin were tested as reference compounds (Yuzwa et al. 2008 Nature Chemical Biology 4:483; Yuzwa et al. 2012 Nature Chemical Biology 8:393). The assay was performed in 200 mM Citrate/phosphate buffer supplemented with 0.005% Tween-20. 35.6 g Na2HPO4 2 H2O (Sigma, #C0759) were dissolved in 1 L water to obtain a 200 mM solution. 19.2 g citric acid (Merck, #1.06580) was dissolved in 1 L water to obtain a 100 mM solution. pH of the sodiumphosphate solution was adjusted with the citric acid solution to 7.2. The buffer to stop the reaction consists of a 500 mM Carbonate buffer, pH 11.0. 734 mg FM-GlcNAc were dissolved in 5.48 mL DMSO to obtain a 250 mM solution and was stored at −20° C. OGA was used at a 2 nM concentration and FM-GlcNAc at a 100 uM final concentration. Dilutions were prepared in assay buffer.
50 nl of a compound dissolved in DMSO was dispensed on Black Proxiplate™ 384 Plus Assay plates (Perkin Elmer, #6008269) and 3 μl fl-OGA enzyme mix added subsequently. Plates were pre-incubated for 60 min at room temperature and then 2 μl FM-GlcNAc substrate mix added. […] Plates were briefly centrifuged for 1 min at 1000 rpm and incubate at room temperature for 6 h. To stop the reaction 5 μl STOP buffer were added and plates centrifuge again 1 min at 1000 rpm. Fluorescence was quantified in the Thermo Scientific Fluoroskan Ascent or the PerkinElmer EnVision with excitation wavelength 485 nm and emission wavelength 538 nm.
For analysis a best-fit curve is fitted by a minimum sum of squares method. From this an IC50 value and Hill coefficient was obtained. High control (no inhibitor) and low control (saturating concentrations of standard inhibitor) were used to define the minimum and maximum values.

| Compound | melting point [°C] | Emax [1] [%] | Emax [2] [%] | IC50 [2] [nM] | EC50 [1] [nM] |
| --- | --- | --- | --- | --- | --- |
| Cc1cc(C[C@H]2CCCN(C(C)c3ccc4cccnc4c3)C2)cc(C)n1 (mixture of isomers) (as salt: HCl) [Compound 9] | 262.69 | – | – | – | – |
| Cc1cc(C[C@H]2CCCN(C(C)c3cc4ncccc4cn3)C2)cc(C)n1 (mixture of isomers) [Compound 6] | – | 41.1 | 99.6 | 47.9 | – |
| Cc1cc(C[C@H]2CCCN(C(C)c3ccc4cccnc4n3)C2)cc(C)n1 (mixture of isomers) [Compound 7] | – | 71.1 | 101 | 14.8 | 234 |
| Cc1cc(C[C@H]2CCCN(C(C)c3ccc4nc(O)cnc4c3)C2)cc(C)n1 (mixture of isomers) [Compound 10] | – | 11.2 | 101 | 107 | > 1000 |
| Cc1cc(C[C@H]2CCCN([C@@H](C)c3ccc4ccc(C)nc4c3)C2)cc(C)n1 (single isomer, unassigned) [Compound 2] | – | – | 60.8 | 7240 | – |
| Cc1cc(C[C@H]2CCCN([C@H](C)c3ccc4ccc(C)nc4c3)C2)cc(C)n1 (single isomer, unassigned) [Compound 3] | – | 34.8 | 101 | 53.7 | > 1000 |
| Cc1cc(C[C@H]2CCCN([C@@H](C)c3cnc4cccnc4c3)C2)cc(C)n1 (single isomer, unassigned) [Compound 4] | – | 50.5 | 102 | 28.8 | 646 |
| Cc1cc(C[C@H]2CCCN([C@H](C)c3cnc4cccnc4c3)C2)cc(C)n1 (single isomer, unassigned) [Compound 5] | – | 86.4 | 103 | 5.5 | 162 |
| Cc1cc(C[C@H]2CCCN(Cc3ccc4cccnc4c3)C2)cc(C)n1 [Compound 1] | 152.83 | 33 | 95.8 | 288 | > 1000 |
| Cc1cc(C[C@H]2CCCN(Cc3ccc4cccnc4n3)C2)cc(C)n1 [Compound 8] | – | 29.8 | 98.5 | 195 | > 1000 |
